From US8940865B2, “Myocardial peptide, preparation method and uses thereof” (Dalian Zhen-Ao Pharmaceutical Co, Ltd., priority 2008, dated 2015)
Where “and” joins values, the source holds several entries; their conditions need not be identical. Equal entries are not always repeated.

Experiments:
[1] = test system: vitro cultured myocardium poisoned by adriamycin; assay: Activity detection experiment of cultivation of myocardium cell (MTT); assay type: cell-based; conditions: mitochondria dehydrogenase activity of adriamycin-damaged myocardium, listed as peptide
Excerpt: “Activity detection experiment of cultivation of myocardium cell” provided by DaLian Zhen-Ao Pharmaceutical CO., LTD is adopted in the activity detection. The experiment is based on test of vitro cultured myocardium poisoned by adriamycin, wherein, […] (MTT) is used as reaction indicator to observe the enhancement of the activity of mitochondria dehydrogenase of the damaged myocardium conducted by cardio myopeptidin, to determine the protective effect of myocardium.

[2] = test system: primary culture myocardium cell damaged by adriamycin; assay: Effect of CMPC against adriamycin injury of primary culture myocardium cell (MTT); assay type: cell-based, Neonatal SD rat
Experimental: Remove the fibroblast through differential adhesion and chemistry method, and inoculate myocardium cell on the 96-well plates.
2.1.2 The Against Function of Cmpc to Injury of Adriamycin to Primary Culture Myocardium Cell.
Cell culture method is the same as 2.1.1
Preparation of model: Blank Control Group: cultivating myocardium cell with DMEM-H-15;
Model Group: adding 1 mg/L adriamycin, washing the plate with DMEM-H-15 two times after being cultivated for 1 h, adding DMEM-H-15 for cultivation;
Protective rate=(Ax−Amodel)/(Acontrol−Amodel)×100%;
(Ax, Amode, Acontrol respectively represent Absorbance value of Drug administration groups, Model Group and Blank control group.

**Q.** For “KGAWSNVLRGMGGAF [CMPC, Lys-Gly-Ala-Trp-Ser-Asn-Val-Leu-Arg-Gly-Met-Gly-Gly-Ala-Phe]”, which Activity value [1] is on record?
**A.** 2.3570 and 2.7328 and 2.564

**Q.** And the “% (protective rate)” value ([2]; Plate 1, Dosage 0.0032 mg/L)?
**A.** 2.01%

**Q.** And the A540 ([2]; Plate 1, Dosage 0.0032 mg/L)?
**A.** 0.662 ± 0.036

**Q.** What about the “% (protective rate)” value ([2]; Plate 1, Dosage 0.016 mg/L) of the same sequence?
**A.** 33.08%

**Q.** And the A540 ([2]; Plate 1, Dosage 0.016 mg/L)?
**A.** 0.695 ± 0.039

**Q.** And the “% (protective rate)” value ([2]; Plate 1, Dosage 0.08 mg/L)?
**A.** 40.49%

**Q.** What about the A540 ([2]; Plate 1, Dosage 0.08 mg/L) of the same sequence?
**A.** 0.703 ± 0.012

**Q.** What about the “% (protective rate)” value ([2]; Plate 1, Dosage 0.4 mg/L) of the same sequence?
**A.** 58.27%

**Q.** What about the A540 ([2]; Plate 1, Dosage 0.4 mg/L) of the same sequence?
**A.** 0.723 ± 0.018

**Q.** What about the “% (protective rate)” value ([2]; Plate 1, Dosage 2 mg/L) of the same sequence?
**A.** 27.98%

**Q.** What about the A540 ([2]; Plate 1, Dosage 2 mg/L) of the same sequence?
**A.** 0.690 ± 0.025

**Q.** And the “% (protective rate)” value ([2]; Plate 1, Dosage 10 mg/L)?
**A.** 4.79%

**Q.** What about the A540 ([2]; Plate 1, Dosage 10 mg/L) of the same sequence?
**A.** 0.665 ± 0.032

**Q.** What about the “% (protective rate)” value ([2]; Plate 1, Dosage 50 mg/L) of the same sequence?
**A.** 2.47%

**Q.** And the A540 ([2]; Plate 1, Dosage 50 mg/L)?
**A.** 0.662 ± 0.031

**Q.** And the “% (protective rate)” value ([2]; Plate 2, Dosage 0.0032 mg/L)?
**A.** 36.17%

**Q.** What about the A540 ([2]; Plate 2, Dosage 0.0032 mg/L) of the same sequence?
**A.** 0.755 ± 0.033

**Q.** And the “% (protective rate)” value ([2]; Plate 2, Dosage 0.016 mg/L)?
**A.** 35.55%

**Q.** What about the A540 ([2]; Plate 2, Dosage 0.016 mg/L) of the same sequence?
**A.** 0.755 ± 0.024

**Q.** What about the “% (protective rate)” value ([2]; Plate 2, Dosage 0.08 mg/L) of the same sequence?
**A.** 49.30%

**Q.** What about the A540 ([2]; Plate 2, Dosage 0.08 mg/L) of the same sequence?
**A.** 0.769 ± 0.055

**Q.** What about the “% (protective rate)” value ([2]; Plate 2, Dosage 0.4 mg/L) of the same sequence?
**A.** 56.11%

**Q.** And the A540 ([2]; Plate 2, Dosage 0.4 mg/L)?
**A.** 0.777 ± 0.057

**Q.** And the “% (protective rate)” value ([2]; Plate 2, Dosage 2 mg/L)?
**A.** 33.85%

**Q.** What about the A540 ([2]; Plate 2, Dosage 2 mg/L) of the same sequence?
**A.** 0.753 ± 0.065

**Q.** And the “% (protective rate)” value ([2]; Plate 2, Dosage 10 mg/L)?
**A.** 33.54%

**Q.** And the A540 ([2]; Plate 2, Dosage 10 mg/L)?
**A.** 0.752 ± 0.039

**Q.** And the “% (protective rate)” value ([2]; Plate 2, Dosage 50 mg/L)?
**A.** 33.08%

**Q.** What about the A540 ([2]; Plate 2, Dosage 50 mg/L) of the same sequence?
**A.** 0.752 ± 0.036

**Q.** What about the “% (protective rate)” value ([2]; Plate 3, Dosage 0.016 mg/L) of the same sequence?
**A.** 55.92%

**Q.** What about the A540 ([2]; Plate 3, Dosage 0.016 mg/L) of the same sequence?
**A.** 0.810 ± 0.020

**Q.** What about the “% (protective rate)” value ([2]; Plate 3, Dosage 0.08 mg/L) of the same sequence?
**A.** 60.35%

**Q.** And the A540 ([2]; Plate 3, Dosage 0.08 mg/L)?
**A.** 0.819 ± 0.016

**Q.** What about the “% (protective rate)” value ([2]; Plate 3, Dosage 0.4 mg/L) of the same sequence?
**A.** 42.34%

**Q.** And the A540 ([2]; Plate 3, Dosage 0.4 mg/L)?
**A.** 0.781 ± 0.050

**Q.** And the “% (protective rate)” value ([2]; Plate 3, Dosage 2 mg/L)?
**A.** 39.42%

**Q.** And the A540 ([2]; Plate 3, Dosage 2 mg/L)?
**A.** 0.775 ± 0.008

**Q.** And the “% (protective rate)” value ([2]; Plate 3, Dosage 10 mg/L)?
**A.** 36.41%

**Q.** And the A540 ([2]; Plate 3, Dosage 10 mg/L)?
**A.** 0.768 ± 0.057

**Q.** What about the “% (protective rate)” value ([2]; Plate 3, Dosage 50 mg/L) of the same sequence?
**A.** 30.49%

**Q.** And the A540 ([2]; Plate 3, Dosage 50 mg/L)?
**A.** 0.756 ± 0.014
